Experimental data reported in patent US12172986B2, “Splicing modulator antibody-drug conjugates and methods of use” (EISAI R&D MANAGEMENT CO., LTD., priority 2018, dated 2024).

Legend:
SF3b complex = target: T1, SF3b complex (Homo sapiens, UniProt O75533+Q7RTV0); experiment: SF3B1 binding / scintillation proximity assay (SPA); settings: payload of the ADC; read-out: SPA-AT S GMean IC50 (nM) SF381 (WT) HELA.2
T1 construct: The beads were suspended and added to the prepared nuclear extracts

Ad2.1 pre-mRNA splicing = experiment: In vitro splicing (IVS) RT-qPCR, Ad2.1 pre-mRNA, HeLa nuclear extract; assay type: biochemical; settings: payload of the ADC; read-out: qPCR-IVS-AT S Gmean IC50 (nm) Ad2.1 HELA.2
Ad2.2 pre-mRNA splicing = experiment: In vitro splicing (IVS) RT-qPCR, Ad2.2 pre-mRNA, HeLa nuclear extract; assay type: biochemical; settings: payload of the ADC; read-out: qPCR-IVS-AT S GMean IC50 (nM) Ad2.2 HELA.2
Experimental: To evaluate payload activity in a cell-free system, an in vitro splicing assay was performed. The payloads were incubated with nuclear extracts and pre-mRNA substrate minigenes.
HeLa nuclear extract preparation: HeLa S3 cell pellets were resuspended in hypotonic buffer (10 mM HEPES pH 7.9, 1.5 mM MgCl2, 10 mM KCl, 0.2 mM PMSF, 0.5 mM DTT) and the suspension was brought up to a total of 5 packed cell volume (PCV). After centrifugation, the supernatant was discarded, and the cells were brought up to 3 PCV with hypotonic buffer and incubated on ice for 10 min. Cells were lysed using a dounce homogenizer and then centrifuged. […]. The nuclei were gently mixed for 30 min before centrifuging. The supernatant (nuclear extract) was then dialyzed into storage buffer (20 mM HEPES pH 7.9, 100 mM KCl, 0.2 mM EDTA, 20% glycerol, 0.2 mM PMSF, 0.5 mM DTT). Protein concentration was determined using NanoDrop 8000 UV-Vis spectrophotometer (ThermoFisher Scientific).
IVS: All Ad2-derived sequences (Pellizzoni et al. (1998) Cell 95(5):615-24) were cloned into pcDNA3.1(+) vector (Promega) using 5′ EcoRI and 3′ Xbal restriction sites. The plasmids were linearized using Xbal and used as DNA templates in in vitro transcription reactions. The FtzΔi intron-less plasmid (Luo and Reed (1999) 96(26):14937-42) was linearized using EcoRI. All RNAs were in vitro transcribed and then purified using MEGAScript T7 (Invitrogen) and MegaClear (Invitrogen) kits, respectively. For splicing reactions using Ad2 variant pre-mRNAs, 1 μL reactions were prepared using 8 μg nuclear extracts prepared from HeLa S3, 2 ng pre-mRNA, 0.2 ng FTZΔi, and varying concentrations of compounds or DMSO. After a 15 min pre-incubation at 30° C., 1 μL splicing activation buffer (0.5 mM ATP, 20 mM creatine phosphate, 1.6 mM MgCl2) was added, and the reactions were incubated for 90 min at 30° C. The reactions were then quenched with 13 μL DMSO, and 25 nL was used for RT-qPCR. RT-qPCR reactions were prepared using TaqMan RNA-to-CT 1-step kit (Life Technologies), RNA from splicing reactions, Ad2 (forward: […]; reverse: […]; probe: […]) and Ftz (forward: […]; reverse: […]; probe: […]) mRNA primer-probe sets. Prism 7 (Graphpad) was used for non-linear regression curve fitting of the formed spliced product and normalized to the control (DMSO) sample. […] In the presence of payload, a decrease in the amount of spliced product was observed.

HCC1954 cells = experiment: Cell viability CellTiter-Glo, HCC1954; assay type: cell-based; settings: unconjugated payload of the ADC
N87 cells = experiment: Cell viability CellTiter-Glo, N87; assay type: cell-based, human; settings: unconjugated payload of the ADC
THP1.1 = experiment: Payload cell potency and lethality CTGlo 72 h, THP1.1; assay type: cell-based; settings: payload
MOLP8 cells = experiment: Cell viability, CD138-expressing MOLP8; assay type: cell-based; settings: unconjugated payload of the ADC
[1] = Caco-2 permeability of ADC payload; assay type: in vitro ADME; settings: human, Caco-2; payload, B-A/A-B; read-out: Eflux ratio
Experimental: (§1) Integrity of cell monolayer was confirmed by TEER (transepithelial electrical resistance) and Lucifer yellow. Payloads were spiked in duplicate at 10 μM, separately, on both sides of the cell monolayer. Permeability rates from the apical to basolateral (A-B) direction and the basolateral to apical (B-A) direction were determined by sampling aliquots from both chambers immediately after treatment (t=0) and following incubation for 2 hours. Samples were protein precipitated with organic solvent containing internal standard and analyzed by LC-MS/MS (SCIEX; API 5500). The area ratio responses of payload/internal standard over time in both directions were used to generate permeability (cm/see) values. Efflux ratio was calculated by dividing B-A/A-B. Control compounds for low and high permeability and efflux behaved as expected.

Caco-2 cells = experiment: Caco-2 permeability of ADC payload; assay type: in vitro ADME
Experimental: as §1

MCF7 cells = experiment: Cell viability CellTiter-Glo, HER2-negative MCF7; settings: unconjugated payload of the ADC
[2] = Chemical stability of ADC payload, pH 5.5 buffer; settings: Table 26; corresponding payload, pH 5.5, 37C, t1/2
[3] = tested on: FBXW5 (mature mRNA transcript); experiment: In vivo PD RT-qPCR in NCI-N87 tumors, FBXW5; set-up: species or system mouse; settings: 10 mg/kg IV single dose
[4] = tested on: TAOK1 (neojunction transcript); experiment: In vivo PD RT-qPCR in NCI-N87 tumors, TAOK1; set-up: species or system mouse; settings: 10 mg/kg IV single dose

Compound | IC50 (SF3b complex) [nM] | IC50 (Ad2.1 pre-mRNA splicing) [nM] | IC50 (Ad2.2 pre-mRNA splicing) [nM] | Payload LD50 (HCC1954 cells) [nM] | Payload Rmin (%) (HCC1954 cells) | Payload LD50 (N87 cells) [nM] | CTGlo-AT S GMean LD50 (nM) 72 h THP1.1 (THP1.1) [nM] | LD50 (nM) (payload) (MOLP8 cells) | Rmin (%) (payload) (MOLP8 cells) | efflux ratio at 2 h, 10 μM [1] | Permeability Caco-2 A-B (10e-6 cm/s) (Caco-2 cells; Table 26, corresponding payload, A-B) | permeability (in words) (Caco-2 cells; payload) | Payload LD50 (MCF7 cells) [nM] | Payload Rmin (%) (MCF7 cells) | pH 5.5 Stability (t1/2, 37C) [2] | FBXW5 mature mRNA transcript in tumors [3] | TAOK1 neojunction transcript in tumors [4]
CC[C@H](O)[C@@H](C)[C@H]1O[C@@H]1C[C@@](C)(O)/C=C/C=C(\C)[C@H]1OC(=O)C[C@H](O)CC[C@@](C)(OC)[C@@H](OC(=O)N2CCN(CCCC(=O)O)CC2)/C=C/[C@@H]1C [D25] | 14.6 | 244 | 50.9 | >200 | 26.882 | >200 | 2076.811 | >400 | 5.94 | 2.55 | 0.14 10e-6 cm/s | poorly permeable | >200 | 65.639 | 3.4 | – | –
CC[C@H](O)[C@@H](C)C1OC1C[C@@](C)(O)/C=C/C=C(\C)[C@H]1OC(=O)C[C@H](O)CC[C@@](C)(OC)[C@@H](OC(=O)N2CCN(CCN3C(=O)C=CC3=O)CC2)/C=C/[C@@H]1C (stereo in doubt) [ADL14-D1, (2S,3S,6S,7R,10R,E)-10-hydroxy-2-((R,2E,4E)-6-hydroxy-7-((2S,3S)-3-((2R,3S)-3-hydroxypentan-2-yl)oxiran-2-yl)-6-methylhepta-2,4-dien-2-yl)-7-methoxy-3,7-dimethyl-12-oxooxacyclododec-4-en-6-yl 4-(2-(2,5-dioxo-2,5-dihydro-1 H-pyrrol-1-yl)ethyl)piperazine-1-carboxylate] | – | – | – | – | – | – | – | – | – | – | – | – | – | – | – | did not exhibit statistically significant changes | did not exhibit statistically significant changes
